Patent US20260110682A1, “COMPOSITIONS AND METHODS TARGETING SWIP-10 AND MBLAC1 FOR THE THERAPEUTIC MODULATION OF COPPER DYSHOMEOSTASIS” (Florida Atlantic University Board of Trustees, priority 2022, published 2026)

Tests used:
[1] = test system: mitochondrial respiration; details: swip-10 KO worms treated with FCCP
Excerpt: Data here are presented as mean oxygen consumption (pmol/second) of 100 worms. ** represents statistical significance (P<0.01) compared to the N2 strain by a two-tailed (unpaired) t-test.

[2] = test system: animal models of AD and other neurodegenerative disorders; details: stroke, oxygen glucose deprivation induced neurodegeneration, motor neuron degeneration; cited from earlier work
MBLAC1 = target: T1, MBLAC1 (Homo sapiens, UniProt A4D2B0); details: cited from earlier work
T1 sequence (A4D2B0 1-266): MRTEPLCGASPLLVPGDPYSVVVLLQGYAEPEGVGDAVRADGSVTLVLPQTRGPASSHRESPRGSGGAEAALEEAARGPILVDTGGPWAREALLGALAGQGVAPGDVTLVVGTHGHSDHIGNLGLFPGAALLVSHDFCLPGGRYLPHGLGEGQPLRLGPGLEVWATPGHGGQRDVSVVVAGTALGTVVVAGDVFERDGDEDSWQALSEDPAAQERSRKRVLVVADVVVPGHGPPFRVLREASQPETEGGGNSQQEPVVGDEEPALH

[3] = test system: GLT1 type glutamate transporter; details: rodents treated with ceftriaxone; cited from earlier work
DA neurons = test: DA neuron degeneration in worms with GFP-labeled DA neurons (BY250), scored by fluorescence/confocal imaging; type: in vivo, C. elegans; details: for rescue of DA neuron degeneration of swip-10: BY250
Protocol: FIG. 6A: WT transgenic worms with GFP-labeled DA neurons (BY250) were raised on agar plates containing vehicle or 10 μM of the Cu+ specific chelator BCS and imaged by fluorescence microscopy at the late L4 stage to quantify DA neuron degeneration. Data derived from 4 experiments for each condition with statistical evaluation by a one-tailed Student's t-test. […] CuCl2 is known to generate Cu+ upon uptake into cells, thus elevating intracellular Cu+ levels. […] Sustained alterations in mitochondrial function and increased oxidative stress are expected to place neurons at risk for death due to their high metabolic rate. […] Assays were performed blind to genotype and treatment, and degeneration assessed by scoring the frequency of dendritic breaks, shrunken soma and missing neurons as described by Gibson et al, 2018. Extending work examining degeneration in BY250: swip-10 vs BY250, a potential Cu-sensitive regulation of swip-10 degeneration was assessed using growth of BY250 animals on the Cu+ specific chelator, BCS, to promote degeneration, and incubation of BY250: swip-10 on CuCl2 and elesclomol to prevent swip-10 degeneration.

Menkes disease = details: boosting Cu levels; cited from earlier work
chca-1 = test: qPCR of chca-1 RNA levels in worms; type: in vivo, C. elegans; details: N2 worms treated with BCS; similar extent as in swip-10 animals

For `N#CC(C#N)=NNc1ccc(OC(F)(F)F)cc1` [FCCP], which oxygen consumption [1] is on record?
The oxygen consumption was “restores oxygen consumption”.

With `CO/N=C(\C(=O)N[C@@H]1C(=O)N2C(C(=O)O)=C(CSc3nc(=O)c(=O)[nH]n3C)CS[C@H]12)c1csc(N)n1` [ceftriaxone] as the compound, how does the neuroprotection [2] read?
Its neuroprotection is “demonstrates neuroprotection”.

And the “binding to MBLAC1” value (MBLAC1)?
The value was “binds MBLAC1”.

And the “GLT1 type glutamate transporter level” value [3]?
Its value is “triggers an elevation”.

For `[Cl][Cu][Cl]` [CuCl2], which “rescue of DA neuron degeneration of swip-10” value (DA neurons; swip-10 animals incubated with CuCl2 (10 μM)) is on record?
The value was “rescued”.

Which “pathology associated with Menkes disease” value (Menkes disease) does the source give for `CN(NC(=O)CC(=O)NN(C)C(=S)c1ccccc1)C(=S)c1ccccc1` [elesclomol] here?
Its value is “reduce pathology”.

And the “rescue of DA neuron degeneration of swip-10” value (DA neurons; swip-10 animals incubated with elesclomol (5 μM))?
The value was “rescued”.

With `Cc1cc(-c2ccc(S(=O)(=O)O)cc2)c2ccc3c(-c4ccc(S(=O)(=O)O)cc4)cc(C)nc3c2n1` [BCS, bathocuproinedisulfonic acid] as the compound, how does the “chca-1 RNA levels” value (chca-1) read?
The value was “elevated”.

What about the DA neuron degeneration (DA neurons; WT (BY250) worms raised on agar plates containing 10 μM BCS, imaged at late L4 stage) of the same compound?
Its DA neuron degeneration is “DA neuron degeneration generated”.
